Measurements: US10603357B2, “Therapeutic TREM-1 peptides” (Universite de Lorraine, priority 2004, dated 2020)

What was measured:
BALB/c mice = assay: LPS-induced endotoxaemia, survival of mice (Example 1); format: in vivo, mouse; conditions: for animals alive 7 days after LPS injection: 200 μl of 300 μM peptide i.p. 1 hour before 200 μg LPS i.p., 10 mice per group (FIG. 2, 3); for protection (survival) from LPS: 4 hours after LPS (FIG. 4)
Procedure: BALB/c mice (10 per group) were injected intraperitoneally with 200 μg LPS. The TREM-1 peptides P1, P2, P3, or P5 (200 μl of a 300 μM solution per mouse) were injected intraperitoneally 1 hour before LPS. Viability of mice was monitored twice a day for 7 days. Statistical analysis was performed by Logrank test. Data from control mice represent cumulative survival curves from two independent experiments performed under identical conditions.
BALB/c mice (10 per group) were injected intraperitoneally with 200 μg LPS. TREM-1 peptide P1, 200 μl of a 300 μM solution per mouse was injected intraperitoneally 1 hour before or 4 hours after LPS. Viability of mice was monitored twice a day for 7 days. Statistical analysis was performed with the Logrank test. Data from control mice represent cumulative survival curves from two independent experiments performed under identical conditions
BALB/c mice (10 per group) were injected intraperitoneally with 200 μg LPS. P1 peptide, 200 μl of a 150, 300 and 600 μM solution per mouse (dots) or P3, 200 μl of a 600 μM solution per mouse (filled squares) were injected intraperitoneally 4 hours after LPS. Viability of mice was monitored twice a day for 7 days. Statistical analysis was performed with the Logrank test
In the experiments of this example, the peptides were administered in a volume of 200 μl of the solution molarity indicated. To assess the ability of TREM1-peptides to protect mice from LPS-induced endotoxaemia, the Inventors administered peptides P1, P2, P3 and P5 (300 μM) 1 hour before a lethal dose of lipopolysaccharide (LPS) (FIG. 2). Lethality was monitored over time and compared with animals that had received control injections of vehicle alone. P5 injection confers maximal protection, with 90% of the animals still alive 7 days after LPS injection, as compared with 10% of control mice (p<0.001). 60% of the P1-treated mice and 50% of the P2 treated mice survived endotoxaemia as compared with 10% of control mice (p<0.01 and p<0.05 respectively).
In order to investigate whether TREM-1 peptide treatment could be delayed until after the administration of LPS, the Inventors injected the peptides at 4 hours after LPS injection. […] 80% of the mice injected with P1 4 hours after LPS survived endotoxaemia compared to 60% of mice treated 1 h before LPS and 10% of mice treated with vehicle alone (p<0.001 and p<0.01 respectively). Thus, P1 is effective even when injected after the outbreak of endotoxaemia. […] P1 administration conferred maximal protection (80%) when administered at 600 μM (p<0.01) and the level of protection dropped to 50% at 300 μM (p<0.05) and further down to 30% at 150 μM as compared to 20% of control mice, indicating a dose dependent effect of P1 (FIG. 4). The Inventors then investigated whether P1 protects against septic shock in the “CLP” model (Cecal Ligation and Puncture is a widely used experimental model of sepsis). Mice treated with two doses of P1 at 5 and 24 hours after CLP were protected from death as compared to control treated mice (p=0.0791) although the difference was not statistically significant. 40% of the mice injected with P1 at 5 days after CLP survived compared to 5% of mice treated with P3 peptide.

[1] = system: TREM-1/TREM-1 ligand interaction; assay: competition of soluble mouse TREM-1/IgG1 binding to TREM-1 ligand positive peritoneal exudate cells (flow cytometry); conditions: peptides 100 and 500 μM, pre-incubated 45 minutes on ice; 2 μg/ml mouseTREM-1/hIgG1
Procedure: Cytofluorimetric analysis of peritoneal exudate cells with 2 μg/ml of mouseTREM-1/hIgG1 in the presence of a 500 μM solution per mouse (thin line), 100 μM solution per mouse (dotted line) or absence (thick line) of the peptides is shown. The grey histogram represents immunostaining with human IgG1 as a control.
A possible mechanism of action could be the ability of TREM-1 derived peptide to interfere with TREM-1/TREM-1 ligand interaction. To address this question the Inventors performed competition experiments on TREM-1 ligand positive cells: PEC (Peritoneal Exudate Cells) from CLP treated mice.
Peritoneal exudate cells (PEC) from mice suffering from a caecal ligation and puncture (CLP)-induced peritonitis were subjected to flow cytometry analysis after incubation with a PE-conjugated anti-human IgG1 (Jackson Immunoresearch, Bar Harbor, USA). Competition with TREM-1 peptides was performed by pre-incubating cells with the indicated concentrations of peptides for 45 minutes on ice before adding mTREM-1-IgG1.

C57BL/6 mice = assay: cecal ligation and puncture (CLP), survival of mice (Example 1); format: in vivo, mouse; conditions: 200 μl of 600 μM i.p. 5 and 24 hours after CLP; 5 days after CLP; 15 per group
Procedure: CLP was induced in C57BL/6 mice (15 per group) as described in Materials and Methods. P1 peptide (empty dots) or P3 peptide (filled squares) (200 μl of a 600 μM solution per mouse) were injected intraperitoneally 5 and 24 hours after CLP induction. Viability of mice was monitored twice a day for 10 days. Statistical analysis was performed with the Logrank test.
In order to investigate whether TREM-1 peptide treatment could be delayed until after the administration of LPS, the Inventors injected the peptides at 4 hours after LPS injection. […] 80% of the mice injected with P1 4 hours after LPS survived endotoxaemia compared to 60% of mice treated 1 h before LPS and 10% of mice treated with vehicle alone (p<0.001 and p<0.01 respectively). Thus, P1 is effective even when injected after the outbreak of endotoxaemia. […] P1 administration conferred maximal protection (80%) when administered at 600 μM (p<0.01) and the level of protection dropped to 50% at 300 μM (p<0.05) and further down to 30% at 150 μM as compared to 20% of control mice, indicating a dose dependent effect of P1 (FIG. 4). The Inventors then investigated whether P1 protects against septic shock in the “CLP” model (Cecal Ligation and Puncture is a widely used experimental model of sepsis). […]

Row | Sequence | animals alive 7 days after LPS injection (BALB/c mice) | inhibition of TREM-1 interaction with its ligand (mTREM-1/IgG1 binding to PEC) [1] | protection (survival) from LPS (BALB/c mice; 200 μl of 150 μM) | protection (survival) from LPS (BALB/c mice; 200 μl of 300 μM) | protection (survival) from LPS (BALB/c mice; 200 μl of 600 μM) | late death over one week (BALB/c mice; delayed treatment after LPS) | mice surviving endotoxaemia (BALB/c mice; peptide 300 μM injected 4 hours after LPS (FIG. 3)) | mice surviving after CLP (C57BL/6 mice)
1 | LQVTDSGLYRCVIYHPP [P5] | 90% | inhibit TREM-1 interaction with its ligand in a dose dependent manner | – | – | – | – | – | –
2 | LVVTQRPFTRPSEVHMGKFTLKH (listed as Mus musculus) [P1] | 60% | inhibit TREM-1 interaction with its ligand in a dose dependent manner | 30% | 50% | 80% | No late death occurred | 80% | 40%
